Legend:
Test in all cases: Postemergence herbicidal evaluation
Assay type in all cases: in vivo
Set-up in all cases: scale not given here
[1] = tested on: ECHCG, Barnyardgrass, Echinochloa crus-galli, (L.) Beau
Description: (§1) The postemergence herbicidal activity of the compounds of the present invention is evaluated by the following tests. Seedling plants are grown in jiffy flats for about two weeks. The test compounds are dispersed in 80/20 (v/v) acetone/water mixtures containing 1.0% SUN-IT®II, a methylated seed oil, in sufficient quantities to provide the equivalent of about 0.006 kg/ha to 0.800 kg/ha of active compound when applied to the plants through a spray nozzle operating at 40 psi for a predetermined time. After spraying, the plants are placed on greenhouse benches and are cared for in accordance with conventional greenhouse procedures. Approximately two to three weeks after treatment, the seedling plants are examined and rated according to the rating system set forth below. Where more than one test is involved for a given compound, the data are averaged.

[2] = tested on: SETVI, Foxtail, Green, Setaria viridis, (L.) Beau
Description: as §1

[3] = tested on: AMBEL, Ragweed, Ambrosia artemisifolia, L.
Description: as §1

[4] = tested on: ZEAMX, Corn, Field, Zea mays, L.; details: crop (corn)
Description: as §1

[5] = tested on: CHEAL, Lambsquarters, Chenopodium album, L.
Description: as §1

[6] = tested on: ABUTH, Velvetleaf, Abutilon theophrasti, Medic.
Description: as §1

Cc1c(C(=C2C=NN(C)C2=O)N(C)C)ccc2c1C(C)(C)CS2(=O)=O [Example 2, 4-[(Z)-(2,3-Dihydro-3,3,4-trimethylbenzo[b]thien-5-yl)(dimethylamino)methylene]-1-methyl-2-pyrazolin-5-one S,S-dioxide]
Herbicide rating ECHCG ([1]; 0.0125 kg/ha): 0.0
Herbicide rating ECHCG ([1]; 0.0250 kg/ha): 0.0
Herbicide rating ECHCG ([1]; 0.0500 kg/ha): 0.0
Herbicide rating ECHCG ([1]; 0.1000 kg/ha): 0.0
Herbicide rating SETVI ([2]; 0.0125 kg/ha): 0.0
Herbicide rating SETVI ([2]; 0.0250 kg/ha): 0.0
Herbicide rating SETVI ([2]; 0.0500 kg/ha): 0.0
Herbicide rating SETVI ([2]; 0.1000 kg/ha): 0.0
Herbicide rating AMBEL ([3]; 0.0125 kg/ha): 0.0
Herbicide rating AMBEL ([3]; 0.0250 kg/ha): 0.0
Herbicide rating AMBEL ([3]; 0.0500 kg/ha): 0.0
Herbicide rating AMBEL ([3]; 0.1000 kg/ha): 0.0
Herbicide rating ZEAMX ([4]; 0.0125 kg/ha): 0.0
Herbicide rating ZEAMX ([4]; 0.0250 kg/ha): 0.0
Herbicide rating ZEAMX ([4]; 0.0500 kg/ha): 0.0
Herbicide rating ZEAMX ([4]; 0.1000 kg/ha): 0.0
Herbicide rating CHEAL ([5]; 0.0125 kg/ha): 0.0
Herbicide rating CHEAL ([5]; 0.0250 kg/ha): 0.0
Herbicide rating CHEAL ([5]; 0.0500 kg/ha): 0.0
Herbicide rating CHEAL ([5]; 0.1000 kg/ha): 0.0
Herbicide rating ABUTH ([6]; 0.0125 kg/ha): 0.0
Herbicide rating ABUTH ([6]; 0.0250 kg/ha): 0.0
Herbicide rating ABUTH ([6]; 0.0500 kg/ha): 0.0
Herbicide rating ABUTH ([6]; 0.1000 kg/ha): 0.0

COc1ccc(OC(=C2C=NN(C)C2=O)c2ccc3c(c2C)C(C)(C)CS3(=O)=O)cc1 [Example 3, 4-[(Z)-(2,3-Dihydro-3,3,4-trimethylbenzo-[b]thien-5-yl)(p-methoxyphenoxy)methylene]-1-methyl-2-pyrazolin-5-one, S,S-dioxide]
Herbicide rating ECHCG ([1]; 0.0125 kg/ha): 2.0
Herbicide rating ECHCG ([1]; 0.0250 kg/ha): 3.0
Herbicide rating ECHCG ([1]; 0.0500 kg/ha): 4.0
Herbicide rating ECHCG ([1]; 0.1000 kg/ha): 6.0
Herbicide rating SETVI ([2]; 0.0125 kg/ha): 1.0
Herbicide rating SETVI ([2]; 0.0250 kg/ha): 3.0
Herbicide rating SETVI ([2]; 0.0500 kg/ha): 5.0
Herbicide rating SETVI ([2]; 0.1000 kg/ha): 7.0
Herbicide rating AMBEL ([3]; 0.0125 kg/ha): 2.0
Herbicide rating AMBEL ([3]; 0.0250 kg/ha): 4.0
Herbicide rating AMBEL ([3]; 0.0500 kg/ha): 7.0
Herbicide rating AMBEL ([3]; 0.1000 kg/ha): 7.0
Herbicide rating ZEAMX ([4]; 0.0125 kg/ha): 0.0
Herbicide rating ZEAMX ([4]; 0.0250 kg/ha): 0.0
Herbicide rating ZEAMX ([4]; 0.0500 kg/ha): 0.0
Herbicide rating ZEAMX ([4]; 0.1000 kg/ha): 2.0
Herbicide rating CHEAL ([5]; 0.0125 kg/ha): 6.0
Herbicide rating CHEAL ([5]; 0.0250 kg/ha): 6.0
Herbicide rating CHEAL ([5]; 0.0500 kg/ha): 8.0
Herbicide rating CHEAL ([5]; 0.1000 kg/ha): 9.0
Herbicide rating ABUTH ([6]; 0.0125 kg/ha): 2.0
Herbicide rating ABUTH ([6]; 0.0250 kg/ha): 4.0
Herbicide rating ABUTH ([6]; 0.0500 kg/ha): 7.0
Herbicide rating ABUTH ([6]; 0.1000 kg/ha): 7.0

— patent US6465395B2, “Substituted methylene pyrazolinones and the herbicidal use thereof” (BASF Aktiengesellschaft, priority 2000, dated 2002)
